ChEMBL document CHEMBL1201861, “Genomics of Drug Sensitity in Cancer screening data, Wellcome Trust Sanger Institute”

What was measured:
Assay in all cases: cells
SBC-1 = type: functional, cell-based, Homo sapiens; conditions: Homo sapiens, SBC-1;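 further: cell viability assay measuring growth inhibition of the SBC-1 cell line, IC50 being the concentration that halves growth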
Description: SANGER: Inhibition of human SBC-1 cell growth in a cell viability assay.

A4-Fuk = type: functional, cell-based, Homo sapiens; conditions: Homo sapiens, A4-Fuk;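 further: growth inhibition of A4-Fuk cells, read out by a cell viability assay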
Description: SANGER: Inhibition of human A4-Fuk cell growth in a cell viability assay.

NB69 = type: functional, cell-based, Homo sapiens; conditions: Homo sapiens, NB69;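 further: growth inhibition of NB69 cells, determined by a cell viability assay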
Description: SANGER: Inhibition of human NB69 cell growth in a cell viability assay.

ES1 = type: functional, cell-based, Homo sapiens; conditions: Homo sapiens, ES1;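 further: growth inhibition of ES1 cells, read out with a cell viability assay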
Description: SANGER: Inhibition of human ES1 cell growth in a cell viability assay.

KM-H2 = type: functional, cell-based, Homo sapiens; conditions: Homo sapiens, KM-H2;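 further: growth inhibition of KM-H2 cells, read out by a cell viability assay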
Description: SANGER: Inhibition of human KM-H2 cell growth in a cell viability assay.

NOMO-1 = type: functional, cell-based, Homo sapiens; conditions: Homo sapiens, NOMO-1;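 further: growth inhibition of human NOMO-1 cells measured by a cell viability assay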
Description: SANGER: Inhibition of human NOMO-1 cell growth in a cell viability assay.

NCI-H1155 = type: functional, cell-based, Homo sapiens; conditions: Homo sapiens, NCI-H1155;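 further: cell growth inhibition measured by a viability assay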
Description: SANGER: Inhibition of human NCI-H1155 cell growth in a cell viability assay.

LS-1034 = type: functional, cell-based, Homo sapiens; conditions: Homo sapiens, LS-1034
Description: SANGER: Inhibition of human LS-1034 cell growth in a cell viability assay.

KALS-1 = type: functional, cell-based, Homo sapiens; conditions: Homo sapiens, KALS-1; read-out: IC50;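 further: growth inhibition of KALS-1 cells, determined with a cell viability assay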
Description: SANGER: Inhibition of human KALS-1 cell growth in a cell viability assay.

SW982 = type: functional, cell-based; conditions: Homo sapiens;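 further: growth inhibition of SW982 cells, read out with a cell viability assay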
Description: SANGER: Inhibition of human SW982 cell growth in a cell viability assay.

LXF-289 cell line = type: functional, cell-based; conditions: Homo sapiens
Description: SANGER: Inhibition of human LXF-289 cell growth in a cell viability assay.

SK-N-FI = type: functional, cell-based, Homo sapiens; conditions: Homo sapiens, SK-N-FI;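 further: cell viability assay measuring growth inhibition of human SK-N-FI cells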
Description: SANGER: Inhibition of human SK-N-FI cell growth in a cell viability assay.

AM-38 = type: functional, cell-based, Homo sapiens; conditions: Homo sapiens, AM-38;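 further: growth inhibition of AM-38 cells of human origin, read out by a cell viability assay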
Description: SANGER: Inhibition of human AM-38 cell growth in a cell viability assay.

NCI-H1650 = type: functional, cell-based, Homo sapiens; conditions: Homo sapiens, NCI-H1650;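 further: growth inhibition of human NCI-H1650 cells measured by a cell viability assay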
Description: SANGER: Inhibition of human NCI-H1650 cell growth in a cell viability assay.

C2BBe1 = type: functional, cell-based, Homo sapiens; conditions: Homo sapiens, C2BBe1;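 further: growth inhibition of C2BBe1 cells, read out through a viability assay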
Description: SANGER: Inhibition of human C2BBe1 cell growth in a cell viability assay.

OS-RC-2 = type: functional, cell-based, Homo sapiens; conditions: Homo sapiens, OS-RC-2;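 further: growth inhibition of human OS-RC-2 cells, measured by a cell viability assay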
Description: SANGER: Inhibition of human OS-RC-2 cell growth in a cell viability assay.

GOTO = type: functional, cell-based, Homo sapiens; conditions: Homo sapiens, GOTO;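 further: growth inhibition of GOTO cells, read out by a cell viability assay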
Description: SANGER: Inhibition of human GOTO cell growth in a cell viability assay.

EW-18 = type: functional, cell-based, Homo sapiens; conditions: Homo sapiens, EW-18; read-out: IC50;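 further: growth inhibition of EW-18 cells, read out by a cell viability assay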
Description: SANGER: Inhibition of human EW-18 cell growth in a cell viability assay.

IA-LM = type: functional, cell-based; conditions: Homo sapiens;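 further: cell viability assay measuring growth inhibition of human IA-LM cells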
Description: SANGER: Inhibition of human IA-LM cell growth in a cell viability assay.

GT3TKB = type: functional, cell-based, Homo sapiens; conditions: Homo sapiens, GT3TKB;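 further: growth inhibition of the cell line, read out with a cell viability assay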
Description: SANGER: Inhibition of human GT3TKB cell growth in a cell viability assay.

RPMI-8226 = type: functional, cell-based, Homo sapiens; conditions: Homo sapiens, RPMI-8226
Description: SANGER: Inhibition of human RPMI-8226 cell growth in a cell viability assay.

TGBC1TKB = type: functional, cell-based, Homo sapiens; conditions: Homo sapiens, TGBC1TKB;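 further: growth inhibition of TGBC1TKB cells, read out by a cell viability assay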
Description: SANGER: Inhibition of human TGBC1TKB cell growth in a cell viability assay.

PSN1 = type: functional, cell-based, Homo sapiens; conditions: Homo sapiens, PSN1;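 further: suppression of growth of human PSN1 cells, read out by a cell viability assay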
Description: SANGER: Inhibition of human PSN1 cell growth in a cell viability assay.

NCI-H226 = type: functional, cell-based, Homo sapiens; conditions: Homo sapiens, NCI-H226;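 further: cell viability read-out used to gauge growth inhibition of the cells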
Description: SANGER: Inhibition of human NCI-H226 cell growth in a cell viability assay.

D-263MG = type: functional, cell-based, Homo sapiens; conditions: Homo sapiens, D-263MG
Description: SANGER: Inhibition of human D-263MG cell growth in a cell viability assay.

KM12 = type: functional, cell-based, Homo sapiens; conditions: Homo sapiens, KM12;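 further: KM12 cell growth inhibition, read out with a cell viability assay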
Description: SANGER: Inhibition of human KM12 cell growth in a cell viability assay.

DSH1 = type: functional, cell-based; conditions: Homo sapiens;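 further: growth inhibition of human DSH1 cells, measured with a cell viability readout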
Description: SANGER: Inhibition of human DSH1 cell growth in a cell viability assay.

HL-60 = type: functional, cell-based, Homo sapiens; conditions: Homo sapiens, HL-60;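 further: growth inhibition of human HL-60 cells, read out with a cell viability assay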
Description: SANGER: Inhibition of human HL-60 cell growth in a cell viability assay.

MLMA = type: functional, cell-based, Homo sapiens; conditions: Homo sapiens, MLMA;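 further: growth inhibition of MLMA cells (human), determined through a cell viability readout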
Description: SANGER: Inhibition of human MLMA cell growth in a cell viability assay.

COLO-684 = type: functional, cell-based, Homo sapiens; conditions: Homo sapiens, COLO-684
Description: SANGER: Inhibition of human COLO-684 cell growth in a cell viability assay.

SK-N-DZ = type: functional, cell-based, Homo sapiens; conditions: Homo sapiens, SK-N-DZ; read-out: IC50;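 further: growth inhibition of the cancer cell line, read out through a viability assay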
Description: SANGER: Inhibition of human SK-N-DZ cell growth in a cell viability assay.

KNS-81-FD = type: functional, cell-based, Homo sapiens; conditions: Homo sapiens, KNS-81-FD;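 further: growth inhibition of KNS-81-FD cells, read out with a cell viability assay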
Description: SANGER: Inhibition of human KNS-81-FD cell growth in a cell viability assay.

SF-268 = type: functional, cell-based, Homo sapiens; conditions: Homo sapiens, SF-268;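 further: growth inhibition of SF-268 cells determined with a cell viability assay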
Description: SANGER: Inhibition of human SF268 cell growth in a cell viability assay.

SW 954 = type: functional, cell-based, Homo sapiens; conditions: Homo sapiens, SW 954;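 further: growth inhibition of SW954 human cancer cells, read out as cell viability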
Description: SANGER: Inhibition of human SW954 cell growth in a cell viability assay.

LB2241-RCC = type: functional, cell-based, Homo sapiens; conditions: Homo sapiens, LB2241-RCC;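 further: cell viability assay measuring how strongly the cultured human renal carcinoma line is prevented from growing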
Description: SANGER: Inhibition of human LB2241-RCC cell growth in a cell viability assay.

NCI-H446 = type: functional, cell-based, Homo sapiens; conditions: Homo sapiens, NCI-H446;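 further: growth inhibition of NCI-H446 cells determined by a cell viability assay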
Description: SANGER: Inhibition of human NCI-H446 cell growth in a cell viability assay.

KINGS-1 = type: functional, cell-based, Homo sapiens; conditions: Homo sapiens, KINGS-1;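 further: cell viability assay measuring suppression of KINGS-1 cell growth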
Description: SANGER: Inhibition of human KINGS-1 cell growth in a cell viability assay.

KARPAS-45 = type: functional, cell-based, Homo sapiens; conditions: Homo sapiens, KARPAS-45;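 further: inhibition of cell line growth, read out through a viability assay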
Description: SANGER: Inhibition of human KARPAS-45 cell growth in a cell viability assay.

ES3 = type: functional, cell-based, Homo sapiens; conditions: Homo sapiens, ES3;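 further: growth inhibition of ES3 cells, read out with a cell viability assay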
Description: SANGER: Inhibition of human ES3 cell growth in a cell viability assay.

IST-MEL1 = type: functional, cell-based, Homo sapiens; conditions: Homo sapiens, IST-MEL1;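 further: growth inhibition of the cell line, read out with a cell viability assay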
Description: SANGER: Inhibition of human IST-MEL1 cell growth in a cell viability assay.

CGTH-W-1 = type: functional, cell-based, Homo sapiens; conditions: Homo sapiens, CGTH-W-1;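 further: growth inhibition of human CGTH-W-1 cells measured by cell viability assay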
Description: SANGER: Inhibition of human CGTH-W-1 cell growth in a cell viability assay.

Mo = type: functional, cell-based, Homo sapiens; conditions: Homo sapiens, Mo
Description: SANGER: Inhibition of human Mo-T cell growth in a cell viability assay.

RH-1 = type: functional, cell-based, Homo sapiens; conditions: Homo sapiens, RH-1;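 further: growth inhibition of human RH-1 cells, read out with a cell viability assay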
Description: SANGER: Inhibition of human RH-1 cell growth in a cell viability assay.

NCI-H1648 = type: functional, cell-based, Homo sapiens; conditions: Homo sapiens, NCI-H1648;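 further: cell viability assay measuring inhibition of NCI-H1648 cell growth, from the Sanger screening data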
Description: SANGER: Inhibition of human NCI-H1648 cell growth in a cell viability assay.

ES7 = type: functional, cell-based, Homo sapiens; conditions: Homo sapiens, ES7;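 further: growth inhibition of cultured human ES7 cells, read out as cell viability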
Description: SANGER: Inhibition of human ES7 cell growth in a cell viability assay.

OVCAR-4 = type: functional, cell-based, Homo sapiens; conditions: Homo sapiens, OVCAR-4;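 further: growth inhibition of human OVCAR-4 cells, measured with a cell viability assay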
Description: SANGER: Inhibition of human OVCAR-4 cell growth in a cell viability assay.

SNU-C2B = type: functional, cell-based; conditions: Homo sapiens;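 further: cell viability readout used to measure compound-driven suppression of SNU-C2B cell proliferation, IC50 marking half-maximal growth inhibition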
Description: SANGER: Inhibition of human SNU-C2B cell growth in a cell viability assay.

EW-16 = type: functional, cell-based, Homo sapiens; conditions: Homo sapiens, EW-16;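 further: growth inhibition of human EW-16 cells, read out as cell viability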
Description: SANGER: Inhibition of human EW-16 cell growth in a cell viability assay.

LB2518-MEL = type: functional, cell-based; conditions: Homo sapiens;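 further: growth inhibition of human LB2518-MEL cells, measured with a cell viability assay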
Description: SANGER: Inhibition of human LB2518-MEL cell growth in a cell viability assay.

HOP-62 = type: functional, cell-based, Homo sapiens; conditions: Homo sapiens, HOP-62;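 further: cell growth inhibition determined with a viability assay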
Description: SANGER: Inhibition of human HOP-62 cell growth in a cell viability assay.

Measured: IC50

COc1ccc(-c2cc3nccn3c(Nc3ncccc3C(N)=O)n2)cc1OC
4.58 µM: EW-18
1.68 µM: EW-16
1.84 µM: SNU-C2B
4.93 µM: LB2241-RCC
4.61 µM: IST-MEL1
2.69 µM: KM12
3.37 µM: CGTH-W-1
4.03 µM: NCI-H226
2.83 µM: SF-268
2.71 µM: IA-LM
1.9 µM: KARPAS-45
3.03 µM: ES3
5.84 µM: COLO-684
1.17 µM: OS-RC-2
0.993 µM: MLMA
4.96 µM: Mo
2.38 µM: ES1
1.75 µM: HOP-62
3.42 µM: GOTO
7.38 µM: NOMO-1
0.897 µM: PSN1
1.09 µM: ES7
4.67 µM: RH-1
4.99 µM: NCI-H446
0.775 µM: SW982
1.81 µM: A4-Fuk
> 8 µM: all other assays above

COC(=O)[C@H](CCSC)NC(=O)c1ccc(NC[C@@H](N)CS)cc1-c1ccccc1
0.955 µM: IA-LM
> 1.02 µM: all other assays above

NC(=O)c1cccc(-c2cc(Nc3ccc(OC(F)(F)F)cc3)ncn2)c1
1 µM: SBC-1
> 1.28 µM: all other assays above
